# Measured values as given in BindingDB's records for doi:10.1016/j.bioorg.2016.02.004 (Universiti Teknologi Mara (Uitm), Puncak Alam Campus, 2016).
# Biological target: Alpha-glucosidase MAL12 (Saccharomyces cerevisiae (strain ATCC 204508 / S288c), UniProt P53341)
# Assay: Assay for α-Glucosidase Inhibitory Activity
# Method: The 135 µL of 50 mM phosphate saline buffer pH (6.8), solution of enzyme (20 µL), and 20 µL of test sample with 70% DMSO was added to 96-well plate. The samples were incubated for 15 min. Pre-read of the plate was taken after incubation using SpectraMax. substrate (pNPG) (25 µL) was added before final reading was takenat 400 nm on Spectra Max.
# Chain of Alpha-glucosidase MAL12 (P53341 whole entry): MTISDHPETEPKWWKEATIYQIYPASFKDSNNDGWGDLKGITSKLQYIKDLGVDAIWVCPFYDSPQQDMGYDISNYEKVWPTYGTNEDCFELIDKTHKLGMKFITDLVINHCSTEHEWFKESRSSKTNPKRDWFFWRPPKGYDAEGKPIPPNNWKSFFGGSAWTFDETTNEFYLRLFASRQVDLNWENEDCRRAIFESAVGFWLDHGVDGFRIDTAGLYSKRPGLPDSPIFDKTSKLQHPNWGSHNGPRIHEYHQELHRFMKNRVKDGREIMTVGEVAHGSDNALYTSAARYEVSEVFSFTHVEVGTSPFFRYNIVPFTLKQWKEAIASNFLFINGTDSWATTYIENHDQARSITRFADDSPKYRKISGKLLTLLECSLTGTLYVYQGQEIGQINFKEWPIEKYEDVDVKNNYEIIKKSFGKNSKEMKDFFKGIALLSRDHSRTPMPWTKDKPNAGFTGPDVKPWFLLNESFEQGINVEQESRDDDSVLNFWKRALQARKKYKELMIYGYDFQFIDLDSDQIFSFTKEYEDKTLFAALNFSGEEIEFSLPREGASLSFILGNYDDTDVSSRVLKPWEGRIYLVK
row,SMILES,IC50 [µM]
1,Cc1cccc2nc(-c3cccc(O)c3)[nH]c12 [2-(3'-Hydroxyphenyl)-7-methyl-1H-benzo[d]imidazole (18)],326
2,Cc1cccc2nc(-c3ccncc3)[nH]c12 [7-Methyl-2-(pyridin-4'-yl)-1H-benzo[d]imidazole (24)],726
3,Cc1cccc2nc(-c3ccccc3[N+](=O)[O-])[nH]c12 [2-(2'-Nitrophenyl)-7-methyl-1H-benzo[d]imidazole (7)],44.6
4,COc1ccc(-c2nc3cccc(C)c3[nH]2)c(O)c1 [2-(2'-Hydroxy-4'-methoxyphenyl)-7-methyl-1H-benzo[d]imidazole (20)],29.8
5,COc1ccc(O)c(-c2nc3cccc(C)c3[nH]2)c1 [2-(2'-Hydroxy-5'-methoxyphenyl)-7-methyl-1H-benzo[d]imidazole (14)],45.2
6,Cc1cccc2nc(-c3ccc(O)cc3)[nH]c12 [2-(4'-Hydroxyphenyl)-7-methyl-1H-benzo[d]imidazole (17)],95.6
7,Cc1cccc2nc(-c3cccc(F)c3)[nH]c12 [2-(3'-Fluorophenyl)-7-methyl-1H-benzo[d]imidazole (9)],165
8,"Cc1cccc2nc(-c3cccc(O)c3O)[nH]c12 [2-(2',3'-Dihydroxyphenyl)-7-methyl-1H-benzo[d]imidazole (15)]",85.6
9,Cc1cccc2nc(-c3ccccc3F)[nH]c12 [2-(2'-Fluorophenyl)-7-methyl-1H-benzo[d]imidazole (8)],34.4
10,Cc1cccc2nc(-c3ccccc3Cl)[nH]c12 [2-(2'-Chlorophenyl)-7-methyl-1H-benzo[d]imidazole (25)],5.3
11,"Cc1cccc2nc(-c3cc(O)ccc3O)[nH]c12 [2-(20,50-Dihydroxyphenyl)-7-methyl-1H-benzo[d]imidazole (13)]",125
12,"Cc1cccc2nc(-c3ccc(O)c(O)c3)[nH]c12 [2-(3',4'-Dihydroxyphenyl)-7-methyl-1H-benzo[d]imidazole (10)]",25.4
13,Cc1cccc2nc(-c3ccccc3O)[nH]c12 [2-(2'-Hydroxyphenyl)-7-methyl-1H-benzo[d]imidazole (19)],16.1
14,Cc1cccc2nc(-c3ccc(F)cc3)[nH]c12 [2-(4'-Fluorophenyl)-7-methyl-1H-benzo[d]imidazole (16)],136
15,"Cc1cccc2nc(-c3ccc(O)cc3O)[nH]c12 [2-(2',4'-Dihydroxyphenyl)-7-methyl-1H-benzo[d]imidazole (2)]",60.9
16,COc1ccc(-c2nc3cccc(C)c3[nH]2)cc1O [2-(3'-Hydroxy-4'-methoxyphenyl)-7-methyl-1H-benzo[d]imidazole (21)],226
17,Cc1cccc2nc(-c3ccc(Cl)cc3)[nH]c12 [2-(4'-Chlorophenyl)-7-methyl-1H-benzo[d]imidazole (27)],145
